Measured values reported in patent publication US20110190235A1, “BORON-CONTAINING SMALL MOLECULES AS ANTIPROTOZOAL AGENTS” (Anacor Pharmaceuticals, Inc., priority 2009, published 2011).

Test: L929 cytotoxicity evaluation (resazurin)
Type: cell-based
Settings: mouse, L929 mouse fibroblast cells; 72 hrs incubation; read-out: Cytotox L-929 IC50
In short: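 Mouse L929 fibroblasts (1×10^4/mL seeding, attached overnight) were treated 72 h at 37 °C, 5% CO2 with serially diluted compounds in DMSO in D-MEM/10% FBS. Viability read by resazurin fluorescence after 3–4 h (ex 544/em 590 nm); IC50 from sigmoidal fits of single data points.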

Question: Which IC50 at 72 h does the source give for `CC1(C)OB(O)c2cc(NC(=O)c3ccc(F)cc3C(F)(F)F)ccc21` [compound 82] here?
Answer: > 10 µg/mL
